One test deals with T1, WT BTK protein (Homo sapiens, UniProt Q06187).
T1 construct: measured for intracellular BTK protein levels by Western blotting; endogenous in cells; host or cells: TMD-8 or RAMOS cells
The test is described as follows: BTK protein degradation assay (Western blotting), WT BTK. The test is classed as cell-based. Particulars: concentration range accounting for 50% degradation of WT BTK protein, TMD-8 or RAMOS cells, 24 hours. An outline of the steps:
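BTK levels were read by Western blotting (GAPDH and β-actin normalisers) in RIPA lysates of TMD-8 cells exposed to compounds for 24 h at 1×10^6 cells/mL. Results scored in ranges of the concentration producing 50% loss of WT BTK.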
(In western blotting, separated proteins are transferred to a membrane and probed.)

For a further test, the target named is T2, C481S BTK protein (Homo sapiens, UniProt Q06187, C481S).
T2 construct: expressed in transfected cells; host or cells: 293T BTK MUT (C481S) cells
T2 sequence (Q06187 whole entry C481S): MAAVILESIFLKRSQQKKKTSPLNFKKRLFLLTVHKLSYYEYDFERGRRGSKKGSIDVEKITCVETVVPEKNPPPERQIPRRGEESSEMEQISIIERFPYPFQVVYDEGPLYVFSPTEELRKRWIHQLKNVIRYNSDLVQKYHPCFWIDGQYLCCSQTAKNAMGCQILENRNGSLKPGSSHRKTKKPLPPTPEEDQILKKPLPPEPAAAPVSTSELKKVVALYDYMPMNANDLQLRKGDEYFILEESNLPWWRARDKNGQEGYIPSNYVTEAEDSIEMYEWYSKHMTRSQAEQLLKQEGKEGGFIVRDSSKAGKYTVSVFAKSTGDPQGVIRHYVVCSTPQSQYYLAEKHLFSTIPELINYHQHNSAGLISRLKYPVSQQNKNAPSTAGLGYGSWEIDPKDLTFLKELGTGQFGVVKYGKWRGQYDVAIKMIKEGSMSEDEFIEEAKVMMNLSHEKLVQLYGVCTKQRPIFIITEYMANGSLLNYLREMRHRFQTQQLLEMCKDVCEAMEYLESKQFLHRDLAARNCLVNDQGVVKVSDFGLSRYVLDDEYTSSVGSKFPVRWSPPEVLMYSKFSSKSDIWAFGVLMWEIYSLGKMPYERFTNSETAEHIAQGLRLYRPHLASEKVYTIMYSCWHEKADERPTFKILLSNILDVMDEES
The test is described as follows: BTK protein degradation assay (Western blotting), C481S BTK. The class given is cell-based. Conditions: concentration range accounting for 50% degradation of C481S BTK protein, 293T BTK MUT (C481S) cells. The procedure: TMD-8, RAMOS, or 293T BTK MUT (C481S) cells were treated with the synthesized compounds and measured for intracellular BTK protein levels by Western blotting. The protocol of the experiment using TMD-8 cells is as follows.
The 12-well plates were treated as follows. A 10 mM stock was 1/10 diluted in series with DMSO ([…]) to form final concentrations of 10, 1, 0.1, 0.01, 0.001, and 0.0001 mM. The compounds with such concentrations were applied to cells, followed by harvesting the cells 24 hours later. For a negative control, a 1/10 dilution of DMSO in the medium (3 mL DMSO+27 mL medium) was used.
The 1-mL cell culture in each well was passed many times through a pipette and then transferred into a 1.5-mL microtube before centrifugation (500 g, 5 min, 4° C.). The supernatant was discarded and the cell pellet was washed with PBS. After centrifugation (500 g, 5 min, 4° C.) again, the supernatant was discarded and the cell pellet was taken.
A lysis buffer was prepared as follows. RIPA buffer (Biosesang, RC2038-050-00)+0.5 mM PMSF (SIGMA, P7626)+1×Protease/Phosphatase Inhibitor (Cell signaling, 5872S) was added in an amount […] per well and left for 30 minutes on ice (vortexing at 0 and 30 minutes) before sonication (5 cycles of pulse for 10 seconds and rest for 30 seconds, 70% amplification). The supernatant obtained by centrifugation (15000 g, 15 min, 4° C.) was transferred into a new microtube. Cells in each well of 96-well plates were 1/2 diluted with the RIPA buffer and incubated at 37° C. for 30 minutes with […] of a 50:1 mixture of BCA reagents A and B in BCA Protein Assay Kit (iNtRON, 21071). After being cooled for 10 minutes, the 96-well plates were measured for absorbance at 562 nm on the BioTek, SYNERGY H1 microplate reader. Samples were prepared by protein quantification based on the absorbance measurements and then boiled at 70° C. for 10 minutes. The sample buffer used in the case was prepared by mixing a NuPAGE or a Bolt 4× sample buffer (Invitrogen) and its 10× sample reducing agent depending on the gel to be used, and protein dilution was made in a RIPI buffer.
The samples were loaded in the same amount into a NuPAGE or Bolt Bis-tris 4-12% gradient gel and allowed to run therein (200 V, 35 minutes). The separated proteins were transferred onto a […] NC membrane, using Trans-blot Turbo (BIO-RAD) (1.3 A constant, 25V limit, 15 minutes). The membrane was blocked at room temperature for 1 hour with skim milk or Intercept Blocking Buffer (LI-COR, 927-60001):0.1% TBST=1:1. The membrane was incubated with Anti BTK Rabbit (1:1,000 in 5% skim milk/0.2% TBST, size: 77 kDa, Cell signaling Technology) at 4° C. overnight O/N or at room temperature for 2 hours and with Anti GAPDH Rabbit (1:10,000 in 5% BSA/0.2% TBST, size: 36 kDa, GENETEX) and Anti β-actin mouse (1:10,000 in 5% BSA/0.2% TBST, RT, size: 43 kDa, GENETEX) at room temperature for 1 or 3 hours. Then, the membrane was washed three times with 0.5% TBST for 5 minutes each time before incubation with the second antibody Anti-Rabbit IgG (1:5,000 in 5% Skim milk/TBST, CST), IRDye® 800CW Goat anti-Rabbit IgG Secondary Antibody (1:10,000 in 5% skim/TBST, RT 45 min), or IRDye® 680RD Goat anti-Mouse IgG Secondary Antibody (1:10,000 in 5% skim/TBST, RT 45 min) for 45 minutes at room temperature in a rocker. The membrane was washed five times with 0.5% TBST for 5 minutes in each time, followed by detection with LI-COR, Odyssey. In this regard, the detection proceeded, as it was, for house-keeping genes while using SuperSignal West Pico PLUS Chemiluminescent Substrate or SuperSignal West femto Maximum Sensitivity Substrate for BTK detection.
According to the concentration ranges of compounds accounting for 50% degradation of WT BTK protein and C481S BTK protein, the activities are expressed as +++(0.0001-0.01 μM), ++(0.01-1 μM), +(1-10 μM), −(>10 μM), and NT (not tested). […]

SMILES strings stand for the structures.

T1 sequence (Q06187 whole entry): as the sequence (Q06187 whole entry C481S) above, with S481C counted along it

On to `Cc1cccc(C)c1Nc1nn(C)c2nc(Nc3ccc4c(c3)CN(C(=O)c3cn(CCOCCOCCOCCNC(=O)CNc5cccc6c5C(=O)N(C5CCC(=O)NC5=O)C6=O)nn3)CC4)ncc12` (stereo not shown) [Compound 19, N-(2-(2-(2-(2-(4-(7-((3-((2,6-Dimethylphenyl)amino)-1-methyl-1H-pyrazolo[3,4-d]pyrimidin-6-yl)amino)-1,2,3,4-tetrahydroisoquinoline-2-carbonyl)-1H-1,2,3-triazol-1-yl)ethoxy)ethoxy)ethoxy)ethyl)-2-((2-(2,6-dioxopiperidin-3-yl)-1,3-dioxoisoindolin-4-yl)amino)acetamide], for which the results for the DC50 on WT BTK protein and on C481S BTK protein were 10 to 1000 nM and greater than 10000 nM, respectively.

Take `Cc1cccc(C)c1Nc1nn(C)c2nc(Nc3ccc4c(c3)CN(CCOCCNC(=O)CN3CCN(c5ccc6c(c5)C(=O)N(C5CCC(=O)NC5=O)C6=O)CC3)CC4)ncc12` (stereo not shown) [Compound 20, N-(2-(2-(7-((3-((2,6-Dimethylphenyl)amino)-1-methyl-1H-pyrazolo[3,4-d]pyrimidin-6-yl)amino)-3,4-dihydroisoquinolin-2 (1H)-yl)ethoxy)ethyl)-2-(4-(2-(2,6-dioxopiperidin-3-yl)-1,3-dioxoisoindolin-5-yl)piperazin-1-yl)acetamide]: the DC50 was 0.1 to 10 nM at WT BTK protein and 1000 to 10000 nM at C481S BTK protein.

As for `Cc1cccc(C)c1Nc1nn(C)c2nc(Nc3ccc4c(c3)CN(CCOCCNC(=O)C3CCN(c5ccc6c(c5)C(=O)N(C5CCC(=O)NC5=O)C6=O)CC3)CC4)ncc12` (stereo not shown) [Compound 21, N-(2-(2-(7-((3-((2,6-Dimethylphenyl)amino)-1-methyl-1H-pyrazolo[3,4-d]pyrimidin-6-yl)amino)-3,4-dihydroisoquinolin-2 (1H)-yl)ethoxy)ethyl)-1-(2-(2,6-dioxopiperidin-3-yl)-1,3-dioxoisoindolin-5-yl)piperidine-4-carboxamide], the DC50 is 0.1 to 10 nM on WT BTK protein and 1000 to 10000 nM on C481S BTK protein.

Take `Cc1cccc(C)c1Nc1nn(C)c2nc(Nc3ccc4c(c3)CN(C(=O)CCOCCOCCOCCOCCNC(=O)CNc3ccc5c(c3)C(=O)N(C3CCC(=O)NC3=O)C5=O)CC4)ncc12` (stereo not shown) [Compound 22, N-(15-(7-((3-((2,6-dimethylphenyl)amino)-1-methyl-1H-pyrazolo[3,4-d]pyrimidin-6-yl)amino)-3,4-dihydroisoquinolin-2 (1H)-yl)-15-oxo-3,6,9,12-tetraoxapentadecyl)-2-((2-(2,6-dioxopiperidin-3-yl)-1,3-dioxoisoindolin-5-yl)amino)acetamide]: the half-maximal degradation concentration (DC50) on WT BTK protein is 0.1 to 10 nM; on C481S BTK protein it was greater than 10000 nM.

Turning to `Cc1cccc(C)c1Nc1nn(C)c2nc(Nc3ccc4c(c3)CN(CCOCCOCC(=O)Nc3ccc5c(c3)C(=O)N(C3CCC(=O)NC3=O)C5=O)CC4)ncc12` (stereo not shown) [Compound 23, 2-(2-(2-(7-((3-((2,6-Dimethylphenyl)amino)-1-methyl-1H-pyrazolo[3,4-d]pyrimidin-6-yl)amino)-3,4-dihydroisoquinolin-2 (1H)-yl)ethoxy)ethoxy)-N-(2-(2,6-dioxopiperidin-3-yl)-1,3-dioxoisoindolin-5-yl)acetamide], the DC50 lay in the range of 0.1 to 10 nM on WT BTK protein and 1000 to 10000 nM on C481S BTK protein.

With `Cc1cccc(C)c1Nc1nn(C)c2nc(Nc3ccc4c(c3)CN(CCOCCNC(=O)C3CCN(c5cccc6c5C(=O)N(C5CCC(=O)NC5=O)C6=O)CC3)CC4)ncc12` (stereo not shown) [Compound 24, N-(2-(2-(7-((3-((2,6-Dimethylphenyl)amino)-1-methyl-1H-pyrazolo[3,4-d]pyrimidin-6-yl)amino)-3,4-dihydroisoquinolin-2 (1H)-yl)ethoxy)ethyl)-1-(2-(2,6-dioxopiperidin-3-yl)-1,3-dioxoisoindolin-4-yl)piperidine-4-carboxamide], the DC50 on WT BTK protein was 0.1 to 10 nM; at C481S BTK protein, 1000 to 10000 nM.

In the case of `Cc1cccc(C)c1Nc1nn(C)c2nc(Nc3ccc4c(c3)CN(CCOCCNC(=O)COc3ccc5c(c3)C(=O)N(C3CCC(=O)NC3=O)C5=O)CC4)ncc12` (stereo not shown) [Compound 25, N-(2-(2-(7-((3-((2,6-Dimethylphenyl)amino)-1-methyl-1H-pyrazolo[3,4-d]pyrimidin-6-yl)amino)-3,4-dihydroisoquinolin-2 (1H)-yl)ethoxy)ethyl)-2-((2-(2,6-dioxopiperidin-3-yl)-1,3-dioxoisoindolin-5-yl)oxy)acetamide], the 50% degradation concentration (DC50) on WT BTK protein was 0.1 to 10 nM; on C481S BTK protein, 1000 to 10000 nM.

Regarding `Cc1cccc(C)c1Nc1nn(C)c2nc(Nc3ccc4c(c3)CN(C(=O)[C@H]3CCCN3C(=O)C3CCN(c5ccc6c(c5)C(=O)N(C5CCC(=O)NC5=O)C6=O)CC3)CC4)ncc12` (stereo partly drawn) [Compound 26, 5-(4-((R)-2-(7-((3-((2,6-Dimethylphenyl)amino)-1-methyl-1H-pyrazolo[3,4-d]pyrimidin-6-yl)amino)-1,2,3,4-tetrahydroisoquinoline-2-carbonyl)pyrrolidine-1-carbonyl)piperidin-1-yl)-2-(2,6-dioxopiperidin-3-yl)isoindoline-1,3-dione], the DC50 at WT BTK protein lay in the range of 0.1 to 10 nM; at C481S BTK protein, 1000 to 10000 nM.

Take `Cc1cccc(C)c1Nc1nn(C)c2nc(Nc3ccc4c(c3)CN(CCOCCNC(=O)C3CN(c5ccc6c(c5)C(=O)N(C5CCC(=O)NC5=O)C6=O)C3)CC4)ncc12` (stereo not shown) [Compound 27, N-(2-(2-(7-((3-((2,6-Dimethylphenyl)amino)-1-methyl-1H-pyrazolo[3,4-d]pyrimidin-6-yl)amino)-3,4-dihydroisoquinolin-2 (1H)-yl)ethoxy)ethyl)-1-(2-(2,6-dioxopiperidin-3-yl)-1,3-dioxoisoindolin-5-yl)azetidine-3-carboxamide]: the DC50 was in the range of 0.1 to 10 nM at WT BTK protein and 1000 to 10000 nM at C481S BTK protein.

For the molecule `Cc1cccc(C)c1Nc1nn(C)c2nc(Nc3ccc4c(c3)CN(CC3CCN(C(=O)C5CCN(c6ccc7c(c6)C(=O)N(C6CCC(=O)NC6=O)C7=O)CC5)CC3)CC4)ncc12` (stereo not shown) [Compound 28, 5-(4-(4-((7-((3-((2,6-Dimethylphenyl)amino)-1-methyl-1H-pyrazolo[3,4-d]pyrimidin-6-yl)amino)-3,4-dihydroisoquinolin-2 (1H)-yl)methyl)piperidine-1-carbonyl)piperidin-1-yl)-2-(2,6-dioxopiperidin-3-yl)isoindoline-1,3-dione], the DC50 at WT BTK protein and at C481S BTK protein was 0.1 to 10 nM each time.

As for `Cc1cccc(C)c1Nc1nn(C)c2nc(Nc3ccc4c(c3)CN(CC3CCN(c5ccc6c(c5)C(=O)N(C5CCC(=O)NC5=O)C6=O)CC3)CC4)ncc12` (stereo not shown) [Compound 29, 5-(4-((7-((3-((2,6-Dimethylphenyl)amino)-1-methyl-1H-pyrazolo[3,4-d]pyrimidin-6-yl)amino)-3,4-dihydroisoquinolin-2 (1H)-yl)methyl)piperidin-1-yl)-2-(2,6-dioxopiperidin-3-yl)isoindoline-1,3-dione], the values for the half-maximal degradation concentration (DC50) at WT BTK protein and on C481S BTK protein were 0.1 to 10 nM and 10 to 1000 nM, respectively.

A word on the DC50: it is the midpoint of the concentration-degradation curve.

The values above are taken from patent publication US12161722B2, “Bifunctional heterocyclic compound having BTK degradation function via ubiquitin proteasome pathway, and use thereof” (KOREA RESEARCH INSTITUTE OF CHEMICAL TECHNOLOGY, priority 2021, dated 2024).
